Experiments:
[1] = Metabolic stability test in human liver microsome; type: in vitro ADME; conditions: 5 μM, 37° C.
Procedure: Human liver microsome (manufactured by Xenotech, H0620, final concentration (after dilution), 0.2 mg protein/mL) was suspended in 100 mM potassium phosphate buffer (pH 7.4, containing β-nicotinamide adenine dinucleotide phosphate: 1.3 mM, D-glucose-6-phosphate: 3.3 mM, magnesium chloride: 3.3 mM, glucose-6-phosphate dehydrogenase: 0.45 U/mL), and further mixed with a test compound dissolved in MeCN/DMSO (95/5) (final concentration 5 μM). The mixture was incubated at 37° C. for 10 min and 60 min, acetonitrile containing formic acid (final concentration 0.1%) was added, and the mixture was centrifuged. The test compound (unmodified) in the supernatant was measured by high performance liquid chromatography/mass spectrometry (LC/MS) (manufactured by Waters, LC: Acquity UPLC, MS:SQ Detector or TQ Detector). The residual ratio (%) was calculated from the obtained measurement value.

[2] = target: hERG current in hERG-transfected HEK293 cells (Homo sapiens (Human), UniProt Q12809); experiment: hERG whole cell patch clamp test; type: cell-based; conditions: for IC50: whole cell patch clamp
Procedure: Using human ether-a-go-go related gene (hERG)-transfected HEK293 cells (Cytomyx Limited), an influence on hERG current was examined according to the whole cell patch clamp technique. The hERG-transfected HEK293 cells were passaged using a CO2 incubator (BNA-111, TABAI ESPEC CORP.) under the set conditions of 37° C., 5% CO2, saturated humidity. Culture containers used were Collagen Type I Coated 75 cm^2 flask (4123-010, AGC TECHNO GLASS CO., Ltd.) and Collagen Type I Coated 35 mm culture dish (4000-010, AGC TECHNO GLASS CO., Ltd.). The culture medium used was E-MEM (Eagle Minimum Essential Medium (Earle's Salts, Nikken biomedical laboratory) added with 10% FCS (Fetal calf serum, BioWest, L.L.C.) and 1% MEM Non-Essential Amino Acids Solution (NEAA, Invitrogen Corporation). Geneticin for the selection of hERG gene expressing cells was added thereto to a concentration of 400 μg/mL. As the cells for the measurement, 3×10^4 hERG-transfected HEK293 cells were plated on a 35 mm culture dish 4 to 7 days before measurement of the hERG current. The culture dish produced for the measurement contained the above-mentioned culture medium without geneticin (Invitrogen Corporation).
The highest evaluation concentration of each compound was determined from the highest concentration at which precipitation was not found in the standard extracellular fluid (NaCl: 140 mmol/L, KCl: 2.5 mmol/L, MgCl2:2 mmol/L, CaCl2: 2 mmol/L, HEPES: 10 mmol/L, glucose: 10 mmol/L (adjusted to pH 7.4 with Tris-base)). As the application method, each solution to be applied was ejected from a Y-tube having a tip diameter of about 0.25 mm, which was adjacent (about 2 mm) to the cells, and applied to the cells. The ejection rate was about 0.4 mL/min.
The experiment was performed at room temperature under a phase contrast microscope. The 35 mm culture dish plated with the cells was set on a measurement apparatus, and the standard extracellular fluid was continuously applied to the cells from the Y-tube. A glass electrode for the measurement was filled with an intracellular fluid (Potassium Gluconate: 130 mmol/L, KCl: 20 mmol/L, MgCl2: 1 mmol/L, ATP-Mg: 5 mmol/L, EGTA: 3.5 mmol/L, HEPES: 10 mmol/L (adjusted to pH 7.2 with Tris-base)). A conventional whole cell patch clamp method was applied to the cells, and the maintenance electric potential was set to −80 mV. Under a fixed electric potential, the whole cell current was amplified by an amplifier for patch clamp (AXOPATCH-200B, Axon Instruments, Inc.), and the data was loaded into a computer (IMC-P642400, Intermedical Co., Ltd.) using a data acquisition analysis software (pCLAMP 9.2, Axon Instruments, Inc.).
The measurement of the hERG current was performed in the following two steps. In both cases, the hERG current was initiated by giving a command potential (maintenance electric potential −80 mV, prepulse +20 mV, 1.5 sec, test-pulse −50 mV, 1.5 sec).
Step (1): The above-mentioned command potential was given at 0.1 Hz for 2 min.
Step (2): The above-mentioned command potential was subjected to P/3 subtraction of pCLAMP 9.2 to remove leak current. This was repeated three times and an average thereof was taken as hERG current.
Subsequent to step (1), Step (2) was performed (about 3 min), and the maximum tail current obtained by applying a test-pulse to the hERG current obtained by the method of step (2) was taken as hERG current value. Hereafter, the operations of (1) and (2) were alternately repeated until completion of the experiment and the hERG current value was measured.
Stable hERG current value was recorded three times (about 10 min), and the standard extracellular fluid was instantaneously exchanged with each application fluid. The hERG current value was measured three times (about 10 min) in the same manner during perfusion of the application fluid, and the current value obtained by the 3rd measurement was taken as hERG current value after perfusion of the application fluid. […]

Chain of hERG current in hERG-transfected HEK293 cells (Q12809 whole entry): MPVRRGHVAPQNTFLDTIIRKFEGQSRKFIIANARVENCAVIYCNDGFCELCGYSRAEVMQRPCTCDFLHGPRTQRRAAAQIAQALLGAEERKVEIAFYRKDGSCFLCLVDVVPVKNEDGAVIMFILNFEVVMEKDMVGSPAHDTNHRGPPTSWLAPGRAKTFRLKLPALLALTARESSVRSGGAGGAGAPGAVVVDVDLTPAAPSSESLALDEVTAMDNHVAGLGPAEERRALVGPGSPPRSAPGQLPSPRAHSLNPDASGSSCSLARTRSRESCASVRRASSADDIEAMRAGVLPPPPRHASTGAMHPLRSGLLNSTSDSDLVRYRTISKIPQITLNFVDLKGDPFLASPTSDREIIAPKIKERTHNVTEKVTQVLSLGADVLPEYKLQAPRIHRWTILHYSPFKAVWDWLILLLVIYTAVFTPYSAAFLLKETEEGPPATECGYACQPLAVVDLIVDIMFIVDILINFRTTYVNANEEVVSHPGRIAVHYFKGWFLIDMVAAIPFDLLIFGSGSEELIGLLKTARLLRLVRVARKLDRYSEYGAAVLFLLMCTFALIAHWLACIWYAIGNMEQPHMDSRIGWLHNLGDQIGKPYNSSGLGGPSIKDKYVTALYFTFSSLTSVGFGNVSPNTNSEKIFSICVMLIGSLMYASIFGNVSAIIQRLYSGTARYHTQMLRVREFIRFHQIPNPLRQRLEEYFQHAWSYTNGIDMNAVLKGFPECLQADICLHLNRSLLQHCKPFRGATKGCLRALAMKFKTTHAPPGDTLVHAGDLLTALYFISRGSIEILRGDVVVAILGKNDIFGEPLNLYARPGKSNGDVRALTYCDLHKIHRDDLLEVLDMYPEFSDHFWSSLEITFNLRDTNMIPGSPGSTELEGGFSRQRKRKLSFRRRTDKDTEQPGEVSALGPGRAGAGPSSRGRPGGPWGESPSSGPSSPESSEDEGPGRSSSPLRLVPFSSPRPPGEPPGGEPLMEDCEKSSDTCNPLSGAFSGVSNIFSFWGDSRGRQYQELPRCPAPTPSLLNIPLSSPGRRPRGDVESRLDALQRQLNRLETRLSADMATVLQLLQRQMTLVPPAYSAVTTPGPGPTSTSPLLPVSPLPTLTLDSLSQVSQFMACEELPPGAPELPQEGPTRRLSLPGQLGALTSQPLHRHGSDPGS

Row | SMILES | Stability in liver microsome (residual ratio %) ([1]; 10 min) | Stability in liver microsome (residual ratio %) ([1]; 60 min) | hERG current Inhibition rate (%) ([2]; 30 μmol/L) | IC50 [2] | hERG current Inhibition rate (%) ([2]; 10 μmol/L) | hERG current Inhibition rate (%) ([2]; 1 μmol/L)
1 | CC(C)(O)CCOc1cc(-c2cnn(C(C)(C)C(N)=O)c2)c2c(c1)[C@@](O)(C(F)(F)F)c1ccccc1-2 [Compound (2), 2-{4-[(9R)-9-hydroxy-2-(3-hydroxy-3-methylbutyloxy)-9-(trifluoromethyl)-9H-fluoren-4-yl]-1H-pyrazol-1-yl}-2-methylpropanamide] | 98.8% | 96.5% | 24.4% | > 30 µM | – | –
2 | CC(C)(O)CCCOc1cc(-c2cnn(C(C)(C)C(N)=O)c2)c2c(c1)[C@@](O)(C(F)(F)F)c1ccccc1-2 [Compound (3), 2-{4-[(9R)-9-hydroxy-2-(4-hydroxy-4-methylpentyloxy)-9-(trifluoromethyl)-9H-fluoren-4-yl]-1H-pyrazol-1-yl}-2-methylpropanamide] | 98.4% | 85.9% | 27.3% | > 30 µM | – | –
3 | NC(=O)Cn1cc(-c2cc(OCCC34CC5CC(CC(O)(C5)C3)C4)cc3c2-c2ccccc2[C@]3(O)C(F)(F)F)cn1 [Compound (A), 2-(4-{(9R)-9-Hydroxy-2-[2-(3-hydroxyadamantan-1-yl)ethoxy]-9-(trifluoromethyl)-9H-fluoren-4-yl}-1H-pyrazol-1-yl)acetamide] | 34.8% | 0.0% | – | – | 11.8% | –
4 | Cn1cc(-c2cc(OCC(C)(C)O)cc3c2-c2ccccc2[C@]3(O)C(F)(F)F)cn1 [Compound (B), (9R)-2-(2-Hydroxy-2-methylpropoxy)-4-(1-methyl-1H-pyrazol-4-yl)-9-(trifluoromethyl)-9H-fluoren-9-ol] | 98.0% | 88.2% | – | – | 72.9% | 17.4%

Source: US9040717B2, “Pyrazole-amide compounds and pharmaceutical use thereof” (JAPAN TOBACCO INC., priority 2013, dated 2015)
